Experimental data taken from patent US11390609B2, “Rho-associated protein kinase inhibitor, pharmaceutical composition comprising same, and preparation method and use thereof” (BEIJING TIDE PHARMACEUTICAL CO., LTD., priority 2017, dated 2022).

Legend:
ROCK2 = ROCK2 (Homo sapiens, UniProt O75116); test: ROCK2 kinase IC50 assay (CISBIO HTRF KinEASE-STK S2 kit); assay type: biochemical; details: incubated at room temperature for 2 hours
Protocol: The kinase IC50 was determined by a commercialized CISBIO kinase detection kit, HTRF KinEASE-STK S2 kit (62ST2PEC). ROCK2 (01-119) employed in the reaction was purchased from Carna Biosciences.
Before the assay, the following working solutions as needed were formulated with corresponding reagents according to the instruction of the kinase detection kit: 1×kinase buffer, 5×STK-52 substrate working solution (1.5 μM) and 5×ATP working solution (1.5 μM), 5×ROCK2 kinase working solution, 4×Streptavidin-XL665 working solution, and 4×STK-Ab-Cryptate 2 detection solution. Then the assay was performed according to the following procedure.
A solution of a compound at a concentration of 10000 nM was prepared with the 1×kinase buffer containing 2.5% DMSO. Gradient dilution of the solution of the compound was performed with the kinase buffer containing DMSO, so as to obtain solutions of a test compound at 9 different concentrations. In addition to wells of test compounds, a positive well (containing all the reagents except the compound) and a negative well (containing all the reagents except the test compound and kinase) were set. Except for the control wells (positive and negative wells), a solution of a test compound (4 μL) was added to each of the reaction wells, and a solution of 2.5% DMSO was added to the control wells. Then the substrate ([…], 2 μL. 5×STK-S2 substrate working solution) was added to each of the reaction wells. The 5×ROCK2 kinase working solution (2 μL, containing 1.4 ng ROCK2 kinase) was added to each of the reaction wells except for the negative well, the volume of which was made up with the 1×kinase buffer (2 μL). The 5×ATP working solution (2 μL) was added to each of the reaction wells, and the mixtures were incubated at room temperature for 2 hours. After the kinase reaction was complete, the 4×Streptavidin-XL665 working solution was added to each of the reaction wells, the solutions were mixed, followed by immediate addition of the 4×STK-Ab-Cryptate 2 detection solution (5 μL), and the mixtures were incubated at room temperature for 1 hour. The fluorescence signal was read on ENVISION (Perkinelmer) (excitation wavelength: 320 nm, and emission wavelength: 665 nm and 615 nm). The inhibitory rate in each well was calculated based on the fluorescence intensity value: ER (Emission Ratio)=(fluorescence intensity at 665 nm/fluorescence intensity at 615 nm); inhibitory rate=(ERpositive−ERtest compound)/(ERpositive−ERnegative)*100%. Curves were plotted and fitted to obtain the median inhibitory concentration (IC50) of each teat compound with the PRISM 5.0 software.

ROCK1 = ROCK1 (Homo sapiens (Human), UniProt Q13464); test: ROCK1 kinase IC50 assay (biological test method similar to the ROCK2 assay); assay type: biochemical
Method in brief: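 Compound dilution series (9 concentrations, top solution 10000 nM, DMSO-containing buffer) incubated 2 h at room temperature with kinase, STK-S2 substrate and ATP (5× working solutions of 1.5 µM each). Phosphorylation detected by HTRF (665/615 nm emission ratio) after 1 h; inhibition relative to full-reaction and kinase-free wells, fitted for IC50.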

Sequence of ROCK1 (Q13464 whole entry, species assumed): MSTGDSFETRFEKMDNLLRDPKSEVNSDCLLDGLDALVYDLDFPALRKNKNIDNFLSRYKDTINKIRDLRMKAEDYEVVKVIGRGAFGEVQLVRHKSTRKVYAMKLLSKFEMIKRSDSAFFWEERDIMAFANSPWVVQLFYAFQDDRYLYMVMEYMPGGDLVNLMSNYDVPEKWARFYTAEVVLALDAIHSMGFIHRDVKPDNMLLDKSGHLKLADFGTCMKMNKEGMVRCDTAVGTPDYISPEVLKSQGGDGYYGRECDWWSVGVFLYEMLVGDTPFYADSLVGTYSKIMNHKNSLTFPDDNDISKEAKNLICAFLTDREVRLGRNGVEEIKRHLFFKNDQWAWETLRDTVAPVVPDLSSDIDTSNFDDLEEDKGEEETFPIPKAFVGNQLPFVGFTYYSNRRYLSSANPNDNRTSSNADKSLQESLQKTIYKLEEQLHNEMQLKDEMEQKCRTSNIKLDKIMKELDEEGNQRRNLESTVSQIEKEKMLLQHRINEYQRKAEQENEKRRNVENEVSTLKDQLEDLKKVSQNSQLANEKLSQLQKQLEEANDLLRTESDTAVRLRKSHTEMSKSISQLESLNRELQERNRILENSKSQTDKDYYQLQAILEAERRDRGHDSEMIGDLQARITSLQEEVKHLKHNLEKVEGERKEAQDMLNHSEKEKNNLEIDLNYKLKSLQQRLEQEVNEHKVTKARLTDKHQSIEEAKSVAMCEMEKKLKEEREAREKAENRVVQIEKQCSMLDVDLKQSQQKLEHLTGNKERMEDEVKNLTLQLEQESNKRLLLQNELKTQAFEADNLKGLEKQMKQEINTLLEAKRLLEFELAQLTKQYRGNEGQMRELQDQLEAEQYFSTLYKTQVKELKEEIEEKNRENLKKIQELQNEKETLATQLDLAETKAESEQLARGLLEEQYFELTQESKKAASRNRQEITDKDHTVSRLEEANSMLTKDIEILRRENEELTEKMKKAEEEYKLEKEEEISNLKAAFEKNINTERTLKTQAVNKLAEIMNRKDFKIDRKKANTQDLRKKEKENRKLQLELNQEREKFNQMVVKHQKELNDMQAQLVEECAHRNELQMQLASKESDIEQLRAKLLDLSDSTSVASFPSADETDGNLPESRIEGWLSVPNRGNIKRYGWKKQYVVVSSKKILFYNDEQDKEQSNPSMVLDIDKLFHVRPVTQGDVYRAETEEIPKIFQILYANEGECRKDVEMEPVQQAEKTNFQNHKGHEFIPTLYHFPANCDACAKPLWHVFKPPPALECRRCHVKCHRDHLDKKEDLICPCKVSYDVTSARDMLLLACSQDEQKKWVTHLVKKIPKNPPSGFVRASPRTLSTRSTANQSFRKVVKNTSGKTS

SMILES | IC50 (ROCK2) [nM] | IC50 (ROCK1) [µM]
O=C(c1cc2ccc(-c3nccc(Nc4ccc(-c5cn[nH]c5)cc4)n3)cc2[nH]1)N1CC2(CNC2)C1 [TDI01369, (6-(4-((4-(1H-pyrazol-4-yl)phenyl)-amino)-pyrimidin-2-yl)-1H-indol-2-yl)(2,6-diazaspiro[3.3]heptan-2-yl)methanone] | 266 | 6.79
O=C(NC1CCCN(C2CCOCC2)C1)c1cc2ccc(-c3nccc(Nc4ccc5[nH]ncc5c4)n3)cc2[nH]1 (centres unmarked) [TDI01390, 6-(4-((1H-indazol-5-yl)amino)-pyrimidin-2-yl)-N-(1-(tetrahydro-2H-pyran-4-yl)piperidin-3-yl)-1H-indole-2-carboxamide] | 18 | 0.456
CN(C(=O)c1cc2ccc(-c3nccc(Nc4ccc5[nH]ncc5c4)n3)cc2s1)C1CCOC1 (centres unmarked) [TDI01392, 6-(4-((1H-indazol-5-yl)amino)pyrimidin-2-yl)-N-methyl-N-(tetrahydrofuran-3-yl)ben-zo[b]thiophene-2-carboxamide] | 172 | > 10
O=C(Nc1ccncc1F)c1cc2ccc(-c3nccc(Nc4ccc5[nH]ncc5c4)n3)cc2[nH]1 [TDI01394, 6-(4-((1H-indazol-5-yl)amino)pyrimidin-2-yl)-N-(3-fluoropyridin-4-yl)-1H-indole-2-carboxamide] | 28 | > 10
O=C(Oc1ccccc1)N1Cc2ccc(-c3nccc(Nc4ccc5[nH]ncc5c4)n3)cc2C1 [TDI01403, phenyl 5-(4-((1H-indazol-5-yl)amino)pyrimidin-2-yl)isoindoline-2-caiboxylate] | 110 | 3
CN(C(=O)c1cc2ccc(-c3nccc(Nc4ccc(-c5cn[nH]c5)cc4)n3)cc2[nH]1)C1CCOC1 (centres unmarked) [TDI01419, 6-(4-((4-(1H-pyrazol-4-yl)phenyl)amino)pyrimidin-2-yl)-N-methyl-N-(tetrahydrofuran-3-yl)-1H-indole-2-carboxamide] | 385 | > 10
CN(CC(F)(F)F)C(=O)c1cc2ccc(-c3nccc(Nc4ccc(-c5cn[nH]c5)cc4)n3)cc2s1 [TDI01428, 6-(4-((4-(1H-pyrazol-4-yl)phenyl)-amino)-pyrimidin-2-yl)-N-methyl-N-(2,2,2-trifluoroethyl)-benzo[b]-thiophene-2-carboxamide] | 69 | > 10
CN(CC(F)(F)F)C(=O)c1cc2cc(-c3nccc(Nc4ccc(-c5cn[nH]c5)cc4)n3)ccc2[nH]1 [TDI01429, 5-(4-((4-(1H-pyrazol-4-yl)phenyl)amino)pyrimidin-2-yl)-N-methyl-N-(2,2,2-trifluoroethyl)-1H-indole-2-carboxamide] | 99 | > 10
O=C(c1cc2ccc(-c3nccc(Nc4ccc(-c5cn[nH]c5)cc4)n3)cc2[nH]1)N1CC(O)C1 [TDI01437, (6-(4-((4-(1H-pyrazol-4-yl)phenyl)amino)pyrimidin-2-yl)-1H-indol-2-yl)(3-hydroxyazetidin-1-yl)methanone] | 247 | > 10
O=C(c1cc2ccc(-c3nccc(Nc4ccc(-c5cn[nH]c5)cc4)n3)cc2[nH]1)N1CC[C@H](O)C1 [TDI01438, (S)-(6-(4-((4-(1H-pyrazol-4-yl)phenyl)amino)pyrimidin-2-yl)-1H-indol-2-yl)(3-hydroxypyrrolidin-1-yl)methanone] | 402 | > 10
N#CC1CCN(C(=O)c2cc3ccc(-c4nccc(Nc5ccc(-c6cn[nH]c6)cc5)n4)cc3[nH]2)CC1 [TDI01445, 1-(6-(4-((4-(1H-pyrazol-4-yl)phenyl)amino)pyrimidin-2-yl)-1H-indole-2-carbonyl)piperidine-4-carbonitrile] | 64 | 3
O=C(c1cc2ccc(-c3nc(Nc4ccc(-c5cn[nH]c5)cc4)c4sccc4n3)cc2[nH]1)N1CCOCC1 [TDI01450, (6-(4-((4-(1H-pyrazol-4-yl)phenyl)amino)thieno [3,2-d]pyrimidin-2-yl)-1H-indol-2-yl)(morpholino)methanone] | 453 | > 10
O=C(c1cc2ccc(-c3nccc(Nc4ccc(-c5cn[nH]c5)cc4)n3)cc2[nH]1)N1CC(F)C1 [TDI01455, (6-(4-((4-(1H-pyrazol-4-yl)phenyl)amino)pyrimidin-2-yl)-1H-indol-2-yl)(3-fluoroazetidin-1-yl)methanone] | 29 | > 10
CC(NC(=O)c1cc2ccc(-c3nccc(Nc4ccc(-c5cn[nH]c5)cc4)n3)cc2n1C)C(F)(F)F (centres unmarked) [TDI01457, 6-(4-((4-(1H-pyrazol-4-yl)phenyl)amino)pyrimidin-2-yl)-1-methyl-N-(1,1,1-trifluoropropan-2-yl)-1H-indole-2-carboxamide] | 395 | 4.89

The remaining compounds from weak to strong by IC50 (ROCK2), led by results:

IC50 (ROCK2) [nM] | IC50 (ROCK1) [µM] | SMILES
203 | 4.34 | CC1COCCN1C(=O)c1cc2ccc(-c3nccc(Nc4ccc(-c5cn[nH]c5)cc4)n3)cc2[nH]1 (centres unmarked) [TDI01431, (6-(4-((4-(1H-pyrazol-4-yl)phenyl)amino)pyrimidin-2-yl)-1H-indol-2-yl)(3-methylmorpholino) methanone]
203 | > 10 | CC(C)NC(=O)c1cc2ccc(-c3nc(Nc4ccc(-c5cn[nH]c5)cc4)c4sccc4n3)cc2s1 [TDI01439, 6-(4-((4-(1H-pyrazol-4-yl)phenyl)-amino)thieno-[3,2-d]pyrimidin-2-yl)-N-isopropyl-benzo-[b]thiophene-2-carboxamide]
181 | 6.07 | CC1(F)CN(C(=O)c2cc3ccc(-c4nccc(Nc5ccc(-c6cn[nH]c6)cc5)n4)cc3[nH]2)C1 [TDI01441, (6-(4-((4-(1H-pyrazol-4-yl)phenyl)amino)pyrimidin-2-yl)-1H-indol-2-yl)(3-fluoro-3-methylazetidin-1-yl)methanone]
160 | 4.06 | CNC(=O)c1cc2ccc(-c3nc(Nc4ccc5[nH]ncc5c4)c4sccc4n3)cc2[nH]1 [TDI01405, 6-(4-((1H-indazol-5-yl)amino)-thieno[3,2-d]pyrimidin-2-yl)-N-methyl-1H-indole-2-carboxamide]
123 | > 10 | O=C(Nc1ccncc1Cl)c1cc2ccc(-c3nccc(Nc4ccc5[nH]ncc5c4)n3)cc2s1 [TDI01372, 6-(4-((1H-indazol-5-yl)amino)-pyrimidin-2-yl)-N-(3-chloropyridin-4-yl)benzo[b]-thiophene-2-carboxamide]
64 | > 10 | O=C(Nc1ccncc1Cl)N1Cc2ccc(-c3nccc(Nc4ccc5[nH]ncc5c4)n3)cc2C1 [TDI01374, 5-(4-((1H-indazol-5-yl)amino)pyrimidin-2-yl)-N-(3-chloropyridin-4-yl)isoindoline-2-carboxamide]
35 | 1.52 | O=C(c1cc2ccc(-c3nc(Nc4ccc5[nH]ncc5c4)c4sccc4n3)cc2[nH]1)N1CCC2(CCNCC2)CC1 [TDI01404, (6-(4-((1H-indazol-5-yl)amino)-thieno[3,2-d]pyrimidin-2-yl)-1H-indol-2-yl)(3,9-diazaspiro[5.5]undecan-3-yl)methanone]
32 | 8.26 | O=C(c1cc2ccc(-c3nccc(Nc4ccc(-c5cn[nH]c5)cc4)n3)cc2[nH]1)N1CCC(C(F)(F)F)C1 (centres unmarked) [TDI01444, (6-(4-((4-(1H-pyrazol-4-yl)phenyl)amino)pyrimidin-2-yl)-1H-indol-2-yl)(3-(trifluoromethyl)pyrrolidin-1-yl)methanone]
26 | 1.47 | O=C(c1cc2ccc(-c3nccc(Nc4ccc5[nH]ncc5c4)n3)cc2[nH]1)N1CCC2(CCNCC2)CC1 [TDI01360, (6-(4-((1H-indazol-5-yl)amino)-pyrimidin-2-yl)-1H-indol-2-yl)(3.9-diazaspiro[5.5]undecan-3-yl)methanone]
15 | > 10 | O=C(NCC(F)(F)F)c1cc2ccc(-c3nccc(Nc4ccc(-c5cn[nH]c5)cc4)n3)cc2s1 [TDI01456, 6-(4-((4-(1H-pyrazol-4-yl)phenyl)-amino)-pyrimidin-2-yl)-N-(2,2,2-trifluoroethyl)-benzo[b]-thiophene-2-carboxamide]
13 | 3 | N#CC1CCN(C(=O)c2cc3ccc(-c4nccc(Nc5ccc(-c6cn[nH]c6)cc5)n4)cc3[nH]2)C1 (centres unmarked) [TDI01448, 1-(6-(4-((4-(1H-pyrazol-4-yl)phenyl)amino)pyrimidin-2-yl)-1H-indole-2-carbonyl)pyrrolidine-3-carbonitrile]
